Measured values as given in patent US4198502A, “Aminopyrrole derivatives” (Gruppo Lepetit S.p.A., priority 1973, dated 1980).

Test system: carrageenin-induced edema
Assay: carrageenin-induced edema test in rats (anti-inflammatory)
Assay type: in vivo
Conditions: Rattus norvegicus, po, 50 mg/kg p.o., read-out: % Decrease of the induced edema
Procedure: (§1) An aspect of the anti-inflammatory utility was evidenced by means of the carrageenin-induced edema test in rats, which was performed according to the methodology described by C. A. Winter et al., Proc. Soc. Exptl. Biol. Med., 111, 544, 1962. […] It is also to be noted that the toxicities of the aminopyrrole derivatives which are the object of the present invention are very low; with few exceptions, their LD50 values are always higher than 1000 mg/kg p.o. in mice. Toxicities were determined according to the procedure described by Lichtfield and Wilcoxon, J. Pharm. Exp. Therm., 96, 99, 1949.
The following Table summarizes the aforementioned anti-inflammatory action and LD50 values.
Work on `Cc1[nH]c(-c2ccccc2)c(N)c1C(=O)C(C)C` [Example 20, 3-Amino-4-isobutyryl-5-methyl-2-phenylpyrrole] yielded an inhibition in vivo at 50 mg/kg of 24.2%.
With `CNC(=O)c1c(C)[nH]c(-c2ccccc2)c1N.Cl` [Example 31, 3-Amino-5-methyl-4-methylcarbamoyl-2-phenylpyrrole hydrochloride] the inhibition in vivo at 50 mg/kg was 26.1%.
For `CCCC(=O)c1c(CCC)[nH]c(-c2ccccc2)c1N.Cl` [Example 34, 3-Amino-4-butyryl-2-phenyl-5-propylpyrrole hydrochloride], the inhibition in vivo at 50 mg/kg was 39.1%.
For `CC(=O)c1c(C)[nH]c(-c2ccccc2)c1N=Cc1ccc(Cl)cc1` [Example 45, 4-Acetyl-3-(p-chlorobenzylideneamino)-5-methyl-2-phenylpyrrole], the inhibition in vivo at 50 mg/kg was 23.9%.
For `CC(=O)c1c(N)c(-c2ccccc2)n(C)c1C` [Example 49b, 4-Acetyl-3-amino-1,5-dimethyl-2-phenyl-pyrrole], the inhibition in vivo at 50 mg/kg was 11%.

Same assay, conditions: Rattus norvegicus, po, 100 mg/kg p.o., read-out: % Decrease of the induced edema
`CC(=O)c1c(C)[nH]c(-c2ccccc2)c1N(C)C` [Example 43, 4-Acetyl-3-dimethylamino-5-methyl-2-phenylpyrrole] showed an inhibition in vivo at 100 mg/kg of 25.3%.
In the case of `CC(=O)c1c(C)[nH]c(-c2ccc(F)cc2)c1N` [Example 17, 4-Acetyl-3-amino-2-(p-fluorophenyl)-5-methylpyrrole], the inhibition in vivo at 100 mg/kg is reported as 35.4%.
`Cc1[nH]c(-c2ccccc2)c(N)c1C(=O)c1ccccc1` [Example 3, 3-Amino-4-benzoyl-5-methyl-2-phenylpyrrole] showed an inhibition in vivo at 100 mg/kg of 40.6%.
For `Cc1[nH]c(-c2ccccc2)c(N)c1C(=O)C(C)C` [Example 20, 3-Amino-4-isobutyryl-5-methyl-2-phenylpyrrole], the inhibition in vivo at 100 mg/kg was 37.3%.
Molecule `CNC(=O)c1c(C)[nH]c(-c2ccccc2)c1N.Cl` [Example 31, 3-Amino-5-methyl-4-methylcarbamoyl-2-phenylpyrrole hydrochloride] has an inhibition in vivo at 100 mg/kg of 34.8%.
`CCCC(=O)c1c(CCC)[nH]c(-c2ccccc2)c1N.Cl` [Example 34, 3-Amino-4-butyryl-2-phenyl-5-propylpyrrole hydrochloride] showed an inhibition in vivo at 100 mg/kg of 50%.
`CCOC(=O)c1c[nH]c(-c2ccccc2)c1N.Cl` [Example 6, 3-Amino-4-carbethoxy-2-phenylpyrrole hydrochloride] showed an inhibition in vivo at 100 mg/kg of 25.7%.
Work on `CC(=O)c1c(C)[nH]c(-c2ccccc2)c1N=Cc1ccc(Cl)cc1` [Example 45, 4-Acetyl-3-(p-chlorobenzylideneamino)-5-methyl-2-phenylpyrrole] yielded an inhibition in vivo at 100 mg/kg of 47.9%.
In the case of `CCOC(=O)c1c(C)[nH]c(-c2ccccc2)c1N.Cl` [Example 2, 3-Amino-4-carbethoxy-5-methyl-2-phenylpyrrole hydrochloride], the inhibition in vivo at 100 mg/kg is reported as 36.5%.
`CC(=O)c1c(N)c(-c2ccccc2)n(C)c1C` [Example 49b, 4-Acetyl-3-amino-1,5-dimethyl-2-phenyl-pyrrole] showed an inhibition in vivo at 100 mg/kg of 34.3%.
Work on `CC(=O)c1c(N(C)C)c(-c2ccccc2)n(Cc2ccc(Cl)cc2)c1C` [Example 54, 4-Acetyl-1-(p-chlorobenzyl)-5-methyl-3-dimethylamino-2-phenylpyrrole] yielded an inhibition in vivo at 100 mg/kg of 38%.
`CC(=O)c1c(N=Cc2ccccc2)c(-c2ccccc2)n(C)c1C` [Example 49a, 4-acetyl-3-benzylideneamino-1,5-dimethyl-2-phenylpyrrole] showed an inhibition in vivo at 100 mg/kg of 31%.
Molecule `CC(=O)c1c(N(C)C)c(-c2ccccc2)n(Cc2ccccc2Cl)c1C` [Example 53, 4-Acetyl-1-(o-chlorobenzyl)-5-methyl-3-dimethylamino-2-phenylpyrrole] has an inhibition in vivo at 100 mg/kg of 30%.

Same assay, conditions: Rattus norvegicus, po, 200 mg/kg p.o., read-out: % Decrease of the induced edema
`CC(=O)c1c(C)[nH]c(-c2ccccc2)c1N(C)C` [Example 43, 4-Acetyl-3-dimethylamino-5-methyl-2-phenylpyrrole] gave an inhibition in vivo at 200 mg/kg of 45.6%.
`CC(=O)c1c(C)[nH]c(-c2ccc(F)cc2)c1N` [Example 17, 4-Acetyl-3-amino-2-(p-fluorophenyl)-5-methylpyrrole] showed an inhibition in vivo at 200 mg/kg of 47.9%.
`Cc1[nH]c(-c2ccccc2)c(N)c1C(=O)c1ccccc1` [Example 3, 3-Amino-4-benzoyl-5-methyl-2-phenylpyrrole] gave an inhibition in vivo at 200 mg/kg of 53.9%.
Molecule `Cc1[nH]c(-c2ccccc2)c(N)c1C(=O)C(C)C` [Example 20, 3-Amino-4-isobutyryl-5-methyl-2-phenylpyrrole] has an inhibition in vivo at 200 mg/kg of 44.9%.
For `CNC(=O)c1c(C)[nH]c(-c2ccccc2)c1N.Cl` [Example 31, 3-Amino-5-methyl-4-methylcarbamoyl-2-phenylpyrrole hydrochloride], the inhibition in vivo at 200 mg/kg was 42%.
For `CCCC(=O)c1c(CCC)[nH]c(-c2ccccc2)c1N.Cl` [Example 34, 3-Amino-4-butyryl-2-phenyl-5-propylpyrrole hydrochloride], the inhibition in vivo at 200 mg/kg was 61.3%.
`CCOC(=O)c1c[nH]c(-c2ccccc2)c1N.Cl` [Example 6, 3-Amino-4-carbethoxy-2-phenylpyrrole hydrochloride] showed an inhibition in vivo at 200 mg/kg of 35%.
`CC(=O)c1c(C)[nH]c(-c2ccccc2)c1N=Cc1ccc(Cl)cc1` [Example 45, 4-Acetyl-3-(p-chlorobenzylideneamino)-5-methyl-2-phenylpyrrole] showed an inhibition in vivo at 200 mg/kg of 68.2%.
`CCOC(=O)c1c(C)[nH]c(-c2ccccc2)c1N.Cl` [Example 2, 3-Amino-4-carbethoxy-5-methyl-2-phenylpyrrole hydrochloride] showed an inhibition in vivo at 200 mg/kg of 44.3%.
`CC(=O)c1c(N)c(-c2ccccc2)n(C)c1C` [Example 49b, 4-Acetyl-3-amino-1,5-dimethyl-2-phenyl-pyrrole] showed an inhibition in vivo at 200 mg/kg of 52.7%.
Molecule `CC(=O)c1c(N(C)C)c(-c2ccccc2)n(Cc2ccc(Cl)cc2)c1C` [Example 54, 4-Acetyl-1-(p-chlorobenzyl)-5-methyl-3-dimethylamino-2-phenylpyrrole] has an inhibition in vivo at 200 mg/kg of 47.6%.
For `CC(=O)c1c(N=Cc2ccccc2)c(-c2ccccc2)n(C)c1C` [Example 49a, 4-acetyl-3-benzylideneamino-1,5-dimethyl-2-phenylpyrrole], the inhibition in vivo at 200 mg/kg was 53.1%.
`CC(=O)c1c(N(C)C)c(-c2ccccc2)n(Cc2ccccc2Cl)c1C` [Example 53, 4-Acetyl-1-(o-chlorobenzyl)-5-methyl-3-dimethylamino-2-phenylpyrrole] showed an inhibition in vivo at 200 mg/kg of 37.1%.

Test system: not listed separately
Assay: acute toxicity (LD50), procedure of Lichtfield and Wilcoxon
Conditions: mouse, in vivo, po, mice
Procedure: as §1
Work on `CC(=O)c1c(C)[nH]c(-c2ccccc2)c1N(C)C` [Example 43, 4-Acetyl-3-dimethylamino-5-methyl-2-phenylpyrrole] yielded an LD50 greater than 1000 mg/kg.
Work on `CC(=O)c1c(C)[nH]c(-c2ccc(F)cc2)c1N` [Example 17, 4-Acetyl-3-amino-2-(p-fluorophenyl)-5-methylpyrrole] yielded an LD50 greater than 1000 mg/kg.
In the case of `Cc1[nH]c(-c2ccccc2)c(N)c1C(=O)c1ccccc1` [Example 3, 3-Amino-4-benzoyl-5-methyl-2-phenylpyrrole], the LD50 is reported as greater than 1000 mg/kg.
`Cc1[nH]c(-c2ccccc2)c(N)c1C(=O)C(C)C` [Example 20, 3-Amino-4-isobutyryl-5-methyl-2-phenylpyrrole] gave an LD50 greater than 1000 mg/kg.
In the case of `CNC(=O)c1c(C)[nH]c(-c2ccccc2)c1N.Cl` [Example 31, 3-Amino-5-methyl-4-methylcarbamoyl-2-phenylpyrrole hydrochloride], the LD50 is reported as roughly 1000 mg/kg.
Work on `CCCC(=O)c1c(CCC)[nH]c(-c2ccccc2)c1N.Cl` [Example 34, 3-Amino-4-butyryl-2-phenyl-5-propylpyrrole hydrochloride] yielded an LD50 of roughly 1000 mg/kg.
For `CCOC(=O)c1c[nH]c(-c2ccccc2)c1N.Cl` [Example 6, 3-Amino-4-carbethoxy-2-phenylpyrrole hydrochloride], the LD50 was greater than 1000 mg/kg.
`CC(=O)c1c(C)[nH]c(-c2ccccc2)c1N=Cc1ccc(Cl)cc1` [Example 45, 4-Acetyl-3-(p-chlorobenzylideneamino)-5-methyl-2-phenylpyrrole] showed an LD50 greater than 1000 mg/kg.
With `CCOC(=O)c1c(C)[nH]c(-c2ccccc2)c1N.Cl` [Example 2, 3-Amino-4-carbethoxy-5-methyl-2-phenylpyrrole hydrochloride] the LD50 was greater than 1000 mg/kg.
`CC(=O)c1c(N)c(-c2ccccc2)n(C)c1C` [Example 49b, 4-Acetyl-3-amino-1,5-dimethyl-2-phenyl-pyrrole] gave an LD50 greater than 1000 mg/kg.
Molecule `CC(=O)c1c(N(C)C)c(-c2ccccc2)n(Cc2ccc(Cl)cc2)c1C` [Example 54, 4-Acetyl-1-(p-chlorobenzyl)-5-methyl-3-dimethylamino-2-phenylpyrrole] has an LD50 greater than 1000 mg/kg.
In the case of `CC(=O)c1c(N=Cc2ccccc2)c(-c2ccccc2)n(C)c1C` [Example 49a, 4-acetyl-3-benzylideneamino-1,5-dimethyl-2-phenylpyrrole], the LD50 is reported as greater than 1000 mg/kg.
`CC(=O)c1c(N(C)C)c(-c2ccccc2)n(Cc2ccccc2Cl)c1C` [Example 53, 4-Acetyl-1-(o-chlorobenzyl)-5-methyl-3-dimethylamino-2-phenylpyrrole] showed an LD50 greater than 1000 mg/kg.
